Source: ChEMBL document CHEMBL1201862, “PubChem BioAssay data set” (2004)
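Method: 48-hour compound exposure of cells in 96-well plates, five concentrations, linear interpolation of endpoints. Abbreviation: GI50, concentration required for 50% inhibition of growth.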 Activity calls are given as the source filed them. Rule as the data show it: active = GI50 up to about 1.1 µM and inactive = higher.

Columns and labels:
Assay in all cases: DTP human tumour cell line panel, 48 h
[1] = tested on: HT-29
[2] = tested on: SF-295
[3] = tested on: SN12C
[4] = tested on: NCI-H460
[5] = tested on: COLO 205
[6] = tested on: ACHN
[7] = tested on: SK-MEL-2
[8] = tested on: Malme-3M
[9] = tested on: MOLT-4
[10] = tested on: OVCAR-5
[11] = tested on: NCI-H522
[12] = tested on: UO-31
[13] = tested on: Hs-578T
[14] = tested on: SW-620
[15] = tested on: OVCAR-8
[16] = tested on: A498
[17] = tested on: U-251
[18] = tested on: HOP-62
[19] = tested on: T47D
[20] = tested on: BT-549
[21] = tested on: MCF7
[22] = tested on: UACC-257
[23] = tested on: SNB-19
[24] = tested on: OVCAR-4
[25] = tested on: SK-MEL-5
[26] = tested on: SNB-75
[27] = tested on: TK-10
[28] = tested on: MDA-MB-435
[29] = tested on: MDA-N
[30] = tested on: CAKI-1
[31] = tested on: A549
[32] = tested on: LOX IMVI
[33] = tested on: SK-OV-3
[34] = tested on: HL-60
[35] = tested on: SR
[36] = tested on: SF-539
[37] = tested on: DU-145
[38] = tested on: SF-268
[39] = tested on: KM12
[40] = tested on: UACC-62
[41] = tested on: HCT-116
[42] = tested on: RPMI-8226
[43] = tested on: NCI-H23
[44] = tested on: K562
[45] = tested on: CCRF-CEM
[46] = tested on: SK-MEL-28
[47] = tested on: PC-3
[48] = tested on: EKVX
[49] = tested on: M14
[50] = tested on: HCC 2998
[51] = tested on: NCI-H226
[52] = tested on: HCT-15
[53] = tested on: IGROV-1
[54] = tested on: OVCAR-3
[55] = tested on: HOP-92

O=C(Nc1cccc2ccccc12)Nn1cnnc1
GI50 [1]: > 100 µM (inactive) | GI50 [2]: > 100 µM (inactive) | GI50 [3]: > 100 µM (inactive) | GI50 [4]: > 100 µM (inactive) | GI50 [5]: > 100 µM (inactive) | GI50 [6]: > 100 µM (inactive) | GI50 [7]: > 100 µM (inactive) | GI50 [8]: > 100 µM (inactive) | GI50 [9]: > 100 µM (inactive) | GI50 [10]: > 100 µM (inactive) | GI50 [11]: > 100 µM (inactive) | GI50 [12]: > 100 µM (inactive) | GI50 [13]: > 100 µM (inactive) | GI50 [14]: > 100 µM (inactive) | GI50 [15]: 19.1 µM (inactive) | GI50 [16]: > 100 µM (inactive) | GI50 [17]: > 100 µM (inactive) | GI50 [18]: > 100 µM (inactive) | GI50 [19]: > 100 µM (inactive) | GI50 [20]: > 100 µM (inactive) | GI50 [21]: > 100 µM (inactive) | GI50 [22]: > 100 µM (inactive) | GI50 [23]: > 100 µM (inactive) | GI50 [24]: > 100 µM (inactive) | GI50 [25]: > 100 µM (inactive) | GI50 [26]: 27.6 µM (inactive) | GI50 [27]: > 100 µM (inactive) | GI50 [28]: > 100 µM (inactive) | GI50 [29]: > 100 µM (inactive) | GI50 [30]: > 100 µM (inactive) | GI50 [31]: > 100 µM (inactive) | GI50 [32]: > 100 µM (inactive) | GI50 [33]: > 100 µM (inactive) | GI50 [34]: > 100 µM (inactive) | GI50 [35]: > 100 µM (inactive) | GI50 [36]: > 100 µM (inactive) | GI50 [37]: > 100 µM (inactive) | GI50 [38]: > 100 µM (inactive) | GI50 [39]: > 100 µM (inactive) | GI50 [40]: > 100 µM (inactive) | GI50 [41]: > 100 µM (inactive) | GI50 [42]: > 100 µM (inactive) | GI50 [43]: > 100 µM (inactive) | GI50 [44]: > 100 µM (inactive) | GI50 [45]: > 100 µM (inactive) | GI50 [46]: > 100 µM (inactive) | GI50 [47]: > 100 µM (inactive) | GI50 [48]: > 100 µM (inactive) | GI50 [49]: > 100 µM (inactive) | GI50 [50]: > 100 µM (inactive) | GI50 [51]: > 100 µM (inactive) | GI50 [52]: > 100 µM | GI50 [53]: > 100 µM (inactive) | GI50 [54]: > 100 µM (inactive) | GI50 [55]: > 100 µM (inactive)
